Measured values: US12215090B2, “Agents and methods for treating dysproliferative diseases” (Memorial Sloan-kettering Cancer Center, priority 2018, dated 2025)
Read-outs that look alike come from different tables or passages of the source.

Key:
Type in all cases: cell-based
DHL6 cells = experiment: cell viability assay, DHL6 cells
Text: (§1) FIGS. 1A, 1B, 1C, and 1D show the activity of compounds of the invention, compared to (−)-CR31B and (+)-CR31B in cell viability assays using (A) DHL6 cells, (B) Jurkat cells, (C) DoHH2 cells, and (D) LY8 cells. […] The following table reports the IC50s (in nM) for each lymphoma and leukemia cell type.

Jurkat cells = experiment: cell viability assay, Jurkat cells
Text: as §1

DoHH2 cells = experiment: cell viability assay, DoHH2 cells
Text: as §1

LY8 cells = experiment: cell viability assay, LY8 cells
Text: as §1

DHL8 cells = experiment: cell viability assay, DHL8 cells
Text: as §1

[1] = tested on: KOPTK1 cells, a murine T-cell ALL cell line; experiment: cell viability assay, KOPTK1 cells; settings: Mus musculus
[2] = tested on: MOLT-4 (human acute lymphoblastic leukemia [ALL]); experiment: cell viability assay, MOLT-4 cancer cells; settings: MOLT-4 T-ALL cells, 72 hours of exposure, cell titer glow reagent
Procedure: (§2) The biological activity of compounds of the invention was evaluated in several assays. In a cell viability assay using cancer and normal cells lines MOLT-4 (human acute lymphoblastic leukemia [ALL]) and MRC-5 (human lung fibroblast), respectively, cell viability was assessed after 72 hours of exposure to a range of concentrations, using cell titer glow reagent from Promega to assess viability.

[3] = tested on: MRC-5 (human lung fibroblast); experiment: cell viability assay, MRC-5 normal cells; settings: MRC5, MRC-5 non-cancer cells, 72 hours of exposure, cell titer glow reagent
Procedure: as §2

Compound	IC50 (DHL6 cells)	IC50 (Jurkat cells)	IC50 (DoHH2 cells)	IC50 (LY8 cells)	IC50 (DHL8 cells)	IC50 [1]	IC50 (Jurkat cells; Homo sapiens)	IC50 (DoHH2 cells; Homo sapiens, DOHH-2)	IC50 [2]	IC50 [3]
(−)-CR31B [reference compound]	7.62 nM	6.42 nM	7.3 nM	5.93 nM	7.21 nM					
(+)-CR31B [reference compound]	~4300 nM	~3110 nM	2530 nM	16500 nM	7480 nM					
COc1cc(OC)c2c(c1)OC1(c3ccc(O)cc3)C(c3ccccc3)C(C(N)=O)C(O)C21O (racemic) [Racemic mixture of Compounds 8 and 9, 1,8b-dihydroxy-3a-(4-hydroxyphenyl)-6,8-dimethoxy-3-phenyl-2,3-dihydro-1H-cyclopenta[b]benzofuran-2-carboxamide]	947 nM			2910 nM	1040 nM	10 nM	1730 nM	987 nM		
CONC(=O)[C@H]1[C@@H](O)[C@@]2(O)c3c(OC)cc(OC)cc3O[C@@]2(c2ccc(O)cc2)[C@@H]1c1ccccc1 [Compound 1, (1R,2R,3S,3aR,8bS)-1,8b-dihydroxy-3a-(4-hydroxyphenyl)-N,6,8-trimethoxy-3-phenyl-2,3-dihydro-1Hcyclopenta[b]benzofuran-2-carboxamide]	51.5 nM			38.9 nM	74.9 nM	50 nM	63 nM	36.7 nM	5.3 nM	> 1000 nM
